Measured values: the supplement of paper PMC10307832

Compound: COc1cccc2c1C(=O)c1c(O)c3c(c(O)c1C2=O)C[C@@](O)(C(=O)CO)C[C@@H]3O[C@H]1C[C@H](N)[C@H](O)[C@H](C)O1 [Doxorubicin] + Nc1nc2[nH]cc(CCc3ccc(C(=O)N[C@@H](CCC(=O)O)C(=O)O)cc3)c2c(=O)[nH]1 [Pemetrexed] (partner 0.2 µM)
Test: relative viability (nuclei count vs DMSO), 5 days (fraction); higher = more cells survive
Conditions: first compound 0.001 µM
Method in brief: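 Relative viability was taken as the ratio of nuclei in treated wells to nuclei in vehicle wells. Lung cancer cell lines in 1536-well plates received compounds by pin tool one day after seeding, either one drug alone or a fixed anchor-drug dose plus five library-drug doses (not always all listed) in √10 steps. Nuclei were counted on 4× images after 5 days of treatment, and values are medians of duplicate plates.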

Cell Line	relative viability
NCI-H2009	1.04
NCI-H596	0.499
SK-LU-1	0.929
SW 1573	0.869
LCLC-97TM1	0.188
NCI-H2228	0.335
EMC-BAC-2	0.491
NCI-H2087	0.577
LK-2	0.225
NCI-H2126	0.623
H3255	0.526
COR-L23	0.202
COR-L 105	0.87
LC-2-ad	0.267
LU99A	0.199
ChaGo-K-1	0.264
NCI-H322M	0.682
HCC-78	0.946
LXF-289	0.95
BEN	0.899
HARA	0.22
HCC-827	0.272
NCI-H520	0.789
NCI-H2023	0.247
A-427	1.08
NCI-H647	0.211
PC-3 [JPC-3]	1.2
NCI-H1755	0.419

Same assay, conditions: first compound 0.003162 µM

Cell Line	relative viability
NCI-H2009	0.987
NCI-H596	0.505
SK-LU-1	1.08
SW 1573	0.807
LCLC-97TM1	0.179
NCI-H2228	0.344
EMC-BAC-2	0.48
NCI-H2087	0.731
LK-2	0.255
NCI-H2126	0.738
NCI-H1793	1.11
H3255	0.558
COR-L23	0.212
COR-L 105	1.2
LC-2-ad	0.255
LU99A	0.186
ChaGo-K-1	0.254
NCI-H322M	0.542
HCC-78	0.889
LXF-289	0.917
BEN	0.78
HARA	0.257
HCC-827	0.281
NCI-H520	0.728
LOU-NH91	0.415
NCI-H2023	0.218
A-427	1.06
NCI-H647	0.168
PC-3 [JPC-3]	1.12
NCI-H1755	0.408

Same assay, conditions: first compound 0.01 µM

Cell Line	relative viability
NCI-H2009	1.01
NCI-H596	0.526
SK-LU-1	0.903
SW 1573	0.263
LCLC-97TM1	0.179
NCI-H2228	0.32
EMC-BAC-2	0.444
NCI-H2087	0.579
LK-2	0.228
NCI-H2126	0.712
NCI-H1793	0.904
H3255	0.559
COR-L23	0.203
COR-L 105	1.05
LC-2-ad	0.264
LU99A	0.191
ChaGo-K-1	0.231
NCI-H322M	0.66
HCC-78	0.927
LXF-289	0.839
BEN	0.926
HARA	0.338
HCC-827	0.22
NCI-H520	0.681
LOU-NH91	0.359
NCI-H2023	0.212
A-427	0.929
NCI-H647	0.196
PC-3 [JPC-3]	1.15
NCI-H1755	0.419

Same assay, conditions: first compound 0.03162 µM

Cell Line	relative viability
NCI-H2009	0.788
NCI-H596	0.473
SK-LU-1	0.601
SW 1573	0.144
LCLC-97TM1	0.17
NCI-H2228	0.278
EMC-BAC-2	0.409
NCI-H2087	0.615
LK-2	0.26
NCI-H2126	0.699
NCI-H1793	0.617
H3255	0.535
COR-L23	0.2
COR-L 105	0.808
LC-2-ad	0.305
LU99A	0.173
ChaGo-K-1	0.259
NCI-H322M	0.548
HCC-78	0.909
LXF-289	1.03
BEN	0.631
HARA	0.259
HCC-827	0.247
NCI-H520	0.703
LOU-NH91	0.365
NCI-H2023	0.128
A-427	0.746
NCI-H647	0.127
PC-3 [JPC-3]	1.05
NCI-H1755	0.492

Same assay, conditions: first compound 0.1 µM

Cell Line	relative viability
NCI-H2009	0.617
NCI-H596	0.486
SK-LU-1	0.513
SW 1573	0.105
LCLC-97TM1	0.181
NCI-H2228	0.244
EMC-BAC-2	0.369
NCI-H2087	0.668
LK-2	0.238
NCI-H2126	0.681
NCI-H1793	0.784
H3255	0.523
COR-L23	0.186
COR-L 105	0.618
LC-2-ad	0.288
LU99A	0.165
ChaGo-K-1	0.273
NCI-H322M	0.512
HCC-78	0.888
LXF-289	0.929
BEN	0.701
HARA	0.268
HCC-827	0.261
NCI-H520	0.604
LOU-NH91	0.276
NCI-H2023	0.0912
A-427	0.429
NCI-H647	0.163
PC-3 [JPC-3]	0.663
NCI-H1755	0.467
